In patent US4656178A (priority 1985, dated 1987):
Where a name gives a salt, the structure may show the parent alone.

Columns and labels:
[1] = allergenic effect; format: in vivo; settings: 12 guinea pigs and 6 rabbits
[2] = tested on: aconitine arrhythmia; format: in vivo, rats
Procedure: (§1) The atrioventricular arrhythmia caused by aconitine is one of the most reliable models for forecasting the efficiency of the antiarrhythmic action of the novel preparation in clinics. The experiments were conducted on both narcotized and non-narcotized animals. The preparation was administered per os, intramuscularly, intraperitoneally and intravenously 5 to 15 minutes prior to or 3-5 minutes after the administration of aconitine.
The antiarrhythmic activity of the pharmaceutical composition according to the present invention upon administration thereof against the background of a developing aconitine arrhythmia (therapeutic effect) was studied on 110 narcotized rats. The preparation was intravenously administered at intervals of 3-6 minutes against the background of the originated arrhythmia.

[3] = tested on: cardiac rhythm disturbances; experiment: clinical study in patients with cardiac rhythm disturbances; format: in vivo, human
Procedure: The clinical study of the preparation according to the present invention was carried out on 200 patients suffering from various diseases accompanied by different cardiac rhythm disturbances (ischemic heart disease, diverse kinds of cardiomyopathy). The preparation was administered intravenously using 1-2 ampoules (0.5% solution of the preparation, 2 ml) and per os in tablets of 50 mg each (2-3 tablets a day during the first 2 days and 1-2 tablets a day during all following days). ECG characteristics, arterial pressure, heart beat rate and various parameters of hemodynamics were recorded.

[4] = tested on: cardiac contractions; experiment: strength of cardiac contractions in narcotized rats and guinea pigs; format: in vivo; settings: intravenous, 0.1, 0.5, 1, 2 mg/kg
Procedure: (§2) To find out a negative inotropic effect on the heart tissue, two series of experiments have been carried out:
(2) the study of the preparation according to the present invention on the strength of cardiac contractions on narcotized (sodium ethaminal, 50-60 mg/kg intraperitoneally) rats and guinea pigs.

[5] = sugar, protein and enzymes in rats' blood; format: in vivo; settings: 1 mg/kg, single and lasting administration
[6] = 6-month histological toxicity, rats; format: in vivo; settings: per os, 1 mg/kg, 6 months
[7] = lethal dose in dogs; format: in vivo; settings: intravenous
Procedure: (§3) The resorptive effect and toxicity of the preparation according to the present invention were studied on mice, rats, rabbits and dogs.
In doses of 5-6 mg/kg intravenously the preparation according to the present invention causes death of dogs and in doses of 3-4 mg/kg it is lethal for rabbits.

[8] = 6-month histological toxicity, dogs; format: in vivo; settings: per os, 1 and 5 mg/kg, 6 months
[9] = diuresis and urine of rats; format: in vivo; settings: 0.5-1 mg/kg
[10] = resorptive effect and toxicity (general state); format: in vivo, mice, rats, rabbits and dogs
Text: as §3

[11] = tested on: lethal fibrillation of the heart induced by aconitine; experiment: prevention of lethal fibrillation of the heart induced by aconitine in rats; format: in vivo; settings: 0.5 and 1 mg/kg
[12] = duration of antiarrhythmic effect compared with quinidine and novocainamide; settings: in vivo
Procedure: (§4) The duration of the antiarrhythmic action of the preparation was studied on rats intravenously administered with aconitine 1, 2, 4, 6, 24 and 48 hours after the preparation administration per os.

[13] = teratogenicity in pregnant rats; format: in vivo; settings: 317 pregnant rats, 2,377 feti
[14] = infiltration anesthesia in rabbits (intracutaneous); format: in vivo; settings: 0.01-0.05% and 0.1% solutions
Procedure: The local anesthetic effect of the preparation was studied on 14 intact rabbits. […] The results of the experiments on determination of the ability of the preparation to cause infiltration anesthesia have shown that 10-15 minutes after intracutaneous administration, to rabbits, of 0.01-0.05% and 0.1% solutions of the preparation anesthesia occurs which is characterized by an increased threshold of a pain irritation; the duration of the effect is 20 to 48 hours. Under the same conditions of the experiment, the local anesthetic effect of a 0.5% solution of novocaine lasts for 90 minutes on the average.

[15] = tested on: aconitine arrhythmia; experiment: prevention of aconitine arrhythmia in rats and dogs; format: in vivo
Procedure: as §1, §4

[16] = tested on: cardiotoxic effect of the preparation; experiment: sodium bicarbonate at cardiotoxic effect of the preparation in dogs; settings: toxic doses
[17] = tested on: potassium channels of the membrane of neurons; experiment: ion currents through the somatic membrane of mollusc neurons: potassium channels; format: cell-based, mollusca
Text: (§5) The study of the effect produced by the preparation of the present invention on ion currents through the somatic membrane of neurons has shown that it selectively interacts with calcium and potassium channels of the membrane of neurons of mollusca, whereby the currents along these channels are suppressed.

[18] = pharmacological effects, summary; settings: in vivo
[19] = carcinogenicity; format: in vivo; settings: subcutaneously and per os, 0.5-2 mg/kg, 6 months, observation 2 years
[20] = antiinflammatory effect; format: in vivo; settings: doses of 1-5 mg/kg
[21] = tested on: frog's heart; experiment: amplitude of cardiac contractions of isolated frog's heart (Schtraube); settings: concentration of 10^-6 -5.10^-5 g/ml
Text: as §2
(1) the study of the effect of the preparation of this invention on the amplitude of the cardiac contractions of a frog's heart isolated according to Schtraube;

[22] = tested on: calcium channels of the membrane of neurons; experiment: ion currents through the somatic membrane of mollusc neurons: calcium channels; format: cell-based, mollusca
Text: as §5

[23] = tested on: cardiac arrhythmia induced by barium chloride; experiment: cardiac arrhythmia induced by barium chloride; format: in vivo, narcotized rats and intact rabbits; settings: 0.1 mg/kg, injected 10 minutes prior to barium
Procedure: The study of the antiarrhythmic activity of the preparation according to the present invention on a model of cardiac arrhythmia induced by barium chloride was carried out on 56 narcotized rats and 16 intact rabbits. The preparation of the present invention in the dose of 0.1 mg/kg injected 10 minutes prior to administration of barium prevented the development of arrhythmia in 86.6% of the animals.

CCN1CC2(OC(=O)c3ccccc3NC(C)=O)CCC(OC)C34C1C(CC23)C1(O)CC(OC)C2CC4C1(O)C2OC (stereo not drawn) [lappaconitine hydrobromide]
allergenic effect [1]: no allergenic effect | animals with complete restoration of normal sinus rhythm ([2]; 0.1 mg/kg intravenously): 50% | time to restoration of normal sinus rhythm ([2]; 0.1 mg/kg, control arrhythmia lasts 120 minutes): 30 to 35 min | complete elimination of arrhythmia and restoration of correct sinus rhythm ([2]; 0.3 to 0.5 mg/kg): complete elimination of arrhythmia and restoration of the correct sinus rhythm in all the animals | time to complete elimination of arrhythmia ([2]; 0.3 to 0.5 mg/kg): 1 to 2 min | antiarrhythmic index (LD50/ED50) ([2]; against background of developing aconitine arrhythmia): 59 | efficiency by form ([3]; course treatment): more efficient for course treatment in tabletted forms | contraindications ([3]; human, in vivo): No contraindications | side effects (hypotension, changed heart beat rate, pulse, breathing) ([3]; patients): not observed | antiarrhythmic effect in patients ([3]; patients with stable form of ventricular and supraventricular extrasystole): pronounced antiarrhythmic effect | side effects in some cases ([3]; per os, intramuscular or intravenous): weakness or giddeness | time after which side effects pass ([3]; weakness or giddeness): 10 to 15 min | influence on amplitude of cardiac contractions [4]: no influence on the amplitude of cardiac contractions | content of sugar, protein and enzymes in blood [5]: does not result in substantial changes | destructive changes of inner organs and tissues [6]: no destructive changes on the part of inner organs and tissues | lethal dose [7]: 5 to 6 mg/kg | destructive changes of inner organs and tissues [8]: no destructive changes on the part of inner organs and tissues | effect on diuresis [9]: no effect on diuresis of rats | protein and blood in urine ([9]; sulphanylic acid test and benzidine test): not detected | changes in general state of animals ([10]; 0.1-1 mg/kg intravenously, 1-5 mg/kg intraperitoneally, 5-20 mg/kg per os): no considerable changes in the general state of the animals are observed | signs in mice and rats ([10]; higher doses, 5 minutes on average after administration): adynamia, delayed responses, weakening of the muscular tension, rarification and deepening of breathing, lowering of the body temperature | additional signs ([10]; sublethal and lethal doses): hypersalivation, diarrhea, acute disturbances of breathing | prevention of lethal fibrillation of the heart [11]: fully prevents a lethal fibrillation of the heart | duration of effect relative to quinidine and novocainamide [12]: 10 times | teratogenicity [13]: not a potentially teratogenic substance | duration of infiltration anesthesia [14]: 20 to 48 h | onset of infiltration anesthesia ([14]; intracutaneous): 10 to 15 min | duration of antiarrhythmic action ([15]; aconitine model): up to 24 hours | animals in which development of aconitine arrhythmia is fully prevented ([15]; intravenous, 0.2-0.3 mg/kg, narcotized rats and dogs): 100% | animals in which development of aconitine arrhythmia is fully prevented ([15]; peroral, 1-2 mg/kg, dogs and intact rats): 100% | arterial pressure in overdosing [16]: reduction of the arterial pressure | effect on currents along potassium channels [17]: suppressed | moderate additional effects [18]: moderate coronarydilating, spasmolytic, local anesthetic, anti-inflammatory and sedative effects | reduction of systemic arterial pressure and negative inotropic effect [18]: not accompanied by reduction of the systemic arterial pressure, and a negative inotropic effect on the cardiac tissue | carcinogenic properties [19]: no carcinogenic properties | antiinflammatory effect [20]: pronounced antiinflammatory effect | negative inotropic effect, isolated heart [21]: does not provide a negative inotropic effect | effect on currents along calcium channels [22]: suppressed | animals in which development of arrhythmia is prevented [23]: 86.6%
